The results in this text go back to patent US7098210B2, “2h-pyridazine-3-one derivatives, pharmaceutical compositions containing the same and a process for the preparation of the active ingredient” (Egis Gyógyszergyár Rt., priority 2001, dated 2006).

Data set [1] concerns male Wistar rats. Briefly: Inhibition of conditioned avoiding response (CAR), shuttle-box. The format is in vivo, rat. To be noted: compound given 1 hour before the series of experiment, 50% inhibition dose. As for the experimental part:
1.1 Inhibition of Conditioned Avoiding Response (CAR)
The antipsychotic (neuroleptic) effect was measured by determining the inhibition of the learned conditioned avoiding reflex. At the beginning of teaching, male Wistar rats of 120 to 150 g body weight were used for the experiments. The experimental apparatus was the so called shuttle-box consisting of two rooms of 24 cm×24.5 cm×23 cm size separated from each other by a wall. The two rooms were connected by a gate of 6 cm×9 cm size. During the test, the task of the animals was to pass from one room to the other through the gate in case of a suitable warning stimulus, thus, avoiding the punishing (unconditioned) stimulus. The warning (conditioned) stimulus appeared in the room where the animal was staying. The conditioned stimulus (CS) was a gleaming (1 Hz) white light lasting for 15 seconds. The unconditioned stimulus (US) was a randomized electric shock to the sole with an intensity of 0.6 mA which appeared in the last 5 seconds of the conditioned stimulus. Passing from one room of the shuttle-box to the other during the conditioned stimulus was considered as avoiding response, while passing during the unconditioned stimulus was considered as escaping response. Both responses stopped the actual stimulus, and the trial was finished. The intertrial interval (ITI) was 15 seconds. 80 trials were performed on a day. The learning performance was measured as the ratio of the number of the successful avoiding responses to the total number of trials in percentage. The effect of the neuroleptics was determined on the animals showing a performance of at least 75% after the stabilization of the conditioned reflex. The test compounds were administered to the rats once weekly, 1 hour before the series of experiment. When evaluating the effect of the neuroleptics in each group, the performance of the animals on the day before was used as control. […] These values are given in Table I. Chlorpromazine [2-chloro-10-(3dimethylaminopropyl)phenothiazine] and clozapine [8-chloro-11-(4methyl-1-piperazinyl)-5H-dibenzo[b,e][1,4]diazepine] were used as the reference substance.

In data set [2] the test system is male NMRI mice. In words: Inhibition of apomorphine induced stereotypy on mouse. The format is in vivo. To be noted: apomorphine hydrochloride subcutaneously 60 min after treatment. How it is done:
(§1) 1.2 Inhibition of Apomorphine Stereotypy and Climbing on Mouse
(§2) Male NMRI mice of 20 to 24 g body weight were used in the experiments. The animals were treated with the carrier and the test substance (20 ml of volume/kg body weight), respectively, then 30 minutes later, for habituation, they were placed into wire screen cages of 12 cm×12 cm×12 cm size which could be covered by plexyglass plates. After 30 minutes, […] of apomorphine hydrochloride were administered to the mice in a volume of 10 ml/kg, subcutaneously. The measurement of the stereotyped behaviour was begun at once after the treatment with apomorphine and continued for 25 minutes. The measurement was performed by means of a scale having five grades: • 0 point: normal behaviour corresponding to that of the control animals. • 1 point: permanent exploration activity, smelling or moving the head sideways from time to time. • 2 points: intensive continuous head movement or smelling, periodical exploration activity. • 3 points: licking, biting or gnawing from time to time, alternating with intensive smelling or head movement, locomotor activity lasting for a very short time. • 4 points: continuous intensive licking and/or gnawing in the same place without any locomotor or exploration activity.
Evaluation of stereotypy: in case of each animal, the highest point value obtained during the observation was taken into consideration and recorded, respectively. From the maximum point value, median was calculated for each group which was related to the median of the control group to calculate the effect in percentage.
(§3) In this case again chlorpromazine and clozapine were used as the reference substance.

In data set [3] the test system is male NMRI mice. Briefly: Inhibition of apomorphine induced climbing on mouse. The format is in vivo. To be noted: 1 h, po., apomorphine hydrochloride subcutaneously 60 min after treatment. As for the experimental part: as §1, §2
The posture when the mouse climbed up on the vertical wall with at least three legs was considered as climbing. The evaluation was performed in the last ten minutes of the observation on the basis yes/no (+/−).
The frequency was calculated in each group, then the effect was determined in percentage considering the result obtained for the control group as 100%.
as §3

The subject of data set [4] is mice. Briefly: Inhibition of hypermotility induced by phencyclidine (PCP). Type of data set: in vivo. To be noted: Mus musculus, 1 h, sc., 3 mg/kg phencyclidine intraperitoneally 60 minutes after treatment, read-out: ID50 in mg/kg sc.
Data set [5] deals with male Wistar rats. In words: Cataleptogenous effect (method of Morpurgo). The format is in vivo, rat. Conditions: for Ratio Cat/CAR (MED/ID50): catalepsy MED divided by CAR ID50; for MED in mg/kg po.: rats, minimum effective dosis inducing catalepsy. From the text: The cataleptogenous effect was studied according to the method of Morpurgo [Morpurgo, C., Arch. Int. Pharmacodyn., 137, 84 ([…])]. Male Wistar rats of 220 to 240 g body weight have been used for the examinations. The fore-feet of the rats were placed on a gum stopper, one by one, and it was observed how the animal tolerated the unusual posture. The normal (non-cataleptic) animal removes the foot from the stopper during the measuring time of 10 seconds. If the animal keeps the foot on the stopper during the measuring time, this stiff state accompanied by myotonia is evaluated as catalepsy.

For data set [6], the system named is isolated right ventricular papillary muscle of the rabbit. Briefly: Cardiotoxic effect: effective refractory period (ERP) in vitro. To be noted: for % change of ERP (1 μM): papillary muscle paced at 1 Hz, vs. baseline. How it is done:
The cardiotoxic effect was determined in isolated right ventricular papillary muscle of the rabbit in vitro.
The modified method of Hackett et al., 1990 was used (Hacket, A. M., Mc Donald S. J., P., Schweingruber, F. and Gartwaite, S. M.: Simple in vitro method to characterize antiarrhythmic agents J. Pharmacol. Methods 23, 107–116, 1990).
The effective refractory period (ERP) was measured in isolated right ventricular papillary muscle of the rabbit in vitro.
The contractions of papillary muscle preparations obtained from New Zealand rabbits weighing 2.5–3.2 kg were evaluated. The contractions (isometrically paced at 1 Hz) were recorded by 4-channel Hugo Sachs apparatus. The effects of the test compounds or references were measured in 1 μM concentration.

`Cn1ncc(Cl)c(NCCN2CCC(c3noc4cc(F)ccc34)CC2)c1=O` [Example 1, 4-{2-[4-(6-fluoro-1,2-benzisoxazole-3-yl)piperidine-1-yl]ethyl-amino}-5-chloro-2-methyl-2H-pyridazine-3-one] registered a melting point of 108 to 109 °C. For the same compound, the “Conditioned reflex, ID50 in mg/kg” value in data set [1] turned out to be 0.7 mg/kg. For the same compound, in data set [2], the “Inhibition of stereotypy, ID50 in mg/kg po.” value (“Inhibition of stereotypy, ID50” below) stood at 0.4 mg/kg. This compound also registered an ED50 in data set [3] of 0.3 mg/kg. The ED50 in data set [4] was determined as 0.4 mg/kg.
The compound `Cn1ncc(Cl)c(NCCCN2CCC(c3noc4cc(F)ccc34)CC2)c1=O` [Example 2, 4-{3-[4-(6-fluoro-1,2-benzisoxazole-3-yl)piperidine-1-yl]propyl-amino}-5-chloro-2-methyl-2H-pyridazine-3-one] registered a melting point of 117 to 119 °C. For the same compound, the “Conditioned reflex, ID50 in mg/kg” value in data set [1] worked out at 5.8 mg/kg. Besides, the “Inhibition of stereotypy, ID50” value in data set [2] amounted to 2.0 mg/kg. The same compound showed an ED50 in data set [3] of 0.6 mg/kg.
In the case of `O=c1[nH]ncc(Cl)c1NCCCN1CCC(c2noc3cc(F)ccc23)CC1` [Example 3, 4-{3-[4-(6-fluoro-1,2-benzisoxazole-3-yl)piperidine-1-yl]propyl-amino}-5-chloro-2H-pyridazine-3-one], the melting point is 198 to 200 °C. Moreover, the “Inhibition of stereotypy, ID50” value in data set [2] worked out at 1.2 mg/kg. The compound further displayed an ED50 in data set [3] of 0.8 mg/kg.
Take `Cn1ncc(NCCN2CCC(c3noc4cc(F)ccc34)CC2)c(Cl)c1=O` [Example 4, 4-chloro-5-{2-[4-(6-fluoro-1,2-benzisoxazole-3-yl)piperidine-1-yl]ethyl-amino}-2-methyl-2H-pyridazine-3-one]: the “Conditioned reflex, ID50 in mg/kg” value in data set [1] was 0.3 to 0.5 mg/kg. Moreover, the “Inhibition of stereotypy, ID50” value in data set [2] came out at 0.2 mg/kg. Besides, the values for the ED50 in data set [3] and in data set [4] were 0.06 mg/kg and 0.07 mg/kg, respectively. Moreover, in data set [5], the “Ratio Cat/CAR (MED/ID50)” value is “about 6”. Also, in data set [5], the “MED in mg/kg po.” value is 3 mg/kg. Moreover, in data set [6], the “% change of ERP (1 μM)” value came to 11.1 ± 1.7%.
Compound `Cn1ncc(NCCCN2CCC(c3noc4cc(F)ccc34)CC2)c(Cl)c1=O` [Example 5, 4-chloro-5-{3-[4-(6-fluoro-1,2-benzisoxazole-3-yl)piperidine-1-yl]propyl-amino}-2-methyl-2H-pyridazine-3-one] came in with a melting point of 200 to 202 °C. Also, the “Conditioned reflex, ID50 in mg/kg” value in data set [1] is “≦3.0 mg/kg”. In addition, the “Inhibition of stereotypy, ID50” value in data set [2] was found to be 2.0 mg/kg. In addition, in data set [3], the ED50 worked out at 0.6 mg/kg. The ED50 in data set [4] came to 0.46 mg/kg. In addition, in data set [5], the “Ratio Cat/CAR (MED/ID50)” value is reported as more than 3 and the “MED in mg/kg po.” value came to 10 mg/kg. Besides, the “% change of ERP (1 μM)” value in data set [6] was 5.3 ± 0.4%.
In turn, `Cn1ncc(NCCN2CCC(c3noc4cc(F)ccc34)CC2)cc1=O` [Example 6, 5-{2-[4-(6-fluoro-1,2-benzisoxazole-3-yl)piperidine-1-yl]ethyl-amino}-2-methyl-2H-pyridazine-3-one] came in with a melting point of 200 to 202 °C. In addition, the ED50 in data set [4] was 0.9 mg/kg. In data set [5], the “MED in mg/kg po.” value is on record as more than 30 mg/kg. For the same compound, in data set [6], the “% change of ERP (1 μM)” value is given as 6.1 ± 1.9%.
Compound `Cn1ncc(NCCCN2CCC(c3noc4cc(F)ccc34)CC2)cc1=O` [Example 7, 5-{3-[4-(6-fluoro-1,2-benzisoxazole-3-yl)piperidine-1-yl]propyl-amino}-2-methyl-2H-pyridazine-3-one] displayed a melting point of 163 to 165 °C. Besides, the ED50 in data set [4] was 0.4 mg/kg. For the same compound, the “MED in mg/kg po.” value in data set [5] is recorded as approximately 30 mg/kg.
Compound `O=c1[nH]ncc(NCCN2CCC(c3noc4cc(F)ccc34)CC2)c1Cl` [Example 8, 5-{2-[4-(6-fluoro-1,2-benzisoxazole-3-yl)piperidine-1-yl]ethyl-amino}-4-chloro-2H-pyridazine-3-one] came in with a melting point of 229 to 231 °C. Besides, the ED50 in data set [4] was found to be 0.2 mg/kg. Also, the “MED in mg/kg po.” value in data set [5] is listed as approximately 10 mg/kg. Further, the “% change of ERP (1 μM)” value in data set [6] was 1.5 ± 1.5%.
The like results for `O=c1cc(NCCN2CCC(c3noc4cc(F)ccc34)CC2)cn[nH]1` [Example 9, 5-{2-[4-(6-fluoro-1,2-benzisoxazole-3-yl)piperidine-1-yl]ethyl-amino}-2H-pyridazine-3-one] were, in that order, 97 to 99 °C, 1.4 mg/kg, more than 10 mg/kg and 0.4 ± 1.1%.
Take `COc1cc(C(C)=O)ccc1OCCCN1CCC(c2noc3cc(F)ccc23)CC1` [Iloperidone, reference compound]: the “cardiotoxic effect (significant prolongation of ERP)” value in data set [6] (1 μM concentration) is “considerable and significant cardiotoxic potential”. Further, the “% change of ERP (1 μM)” value in data set [6] was 31.9 ± 7.8 %.
Turning to `CN(C)CCCN1c2ccccc2Sc2ccc(Cl)cc21` [chlorpromazine, 2-chloro-10-(3dimethylaminopropyl)phenothiazine, reference compound], the “Conditioned reflex, ID50 in mg/kg” value in data set [1] was 13.2 mg/kg. The “Inhibition of stereotypy, ID50” value in data set [2] worked out at 6.8 mg/kg. The compound also returned an ED50 in data set [3] of 6.1 mg/kg.
Take `CN1CCN(C2=Nc3cc(Cl)ccc3Nc3ccccc32)CC1` [clozapine, 8-chloro-11-(4methyl-1-piperazinyl)-5H-dibenzo[b,e][1,4]diazepine, reference compound]: in data set [1], the “Conditioned reflex, ID50 in mg/kg” value came out at 21.3 mg/kg. Also, the “Inhibition of stereotypy, ID50” value in data set [2] is given as 35.4 mg/kg. Also, the values for the ED50 in data set [3] and in data set [4] were 11.8 mg/kg and 2.9 mg/kg, respectively.
In the case of `O=C(CCCN1CCC(O)(c2ccc(Cl)cc2)CC1)c1ccc(F)cc1` [haloperidol, 4-(4-chlorophenyl-4-hydroxy-1-piperidinyl)-1-(4-fluorophenyl)-1-butanone, reference compound], the ED50 in data set [4] came to 1.2 mg/kg. Also, the “MED in mg/kg po.” value in data set [5] was determined as 1 mg/kg.
